Reference: PubChem BioAssay AID190 (DTP/NCI, 2004)
Values joined by “and” are separate entries in the source; they are usually repeats but may differ in a detail not shown here. Identical values can stand only once. Inconclusive results and toxic doses are left out. The calls were made as follows: active = survival T/C of 150% or more; inactive = T/C below 125% in these data.

Test system: AKR/Lw mice, AKR lymphoma ip, median survival T/C
Assay: NCI In Vivo Anticancer Drug Screen. Data for tumor model Lymphoma AKR (Transplanted) (intraperitoneal) in AKR/Lw mice
Settings: endpoint: median survival time, higher = longer survival
Procedure: The antitumor activity of compounds was measured in mice bearing transplantable tumors. Survival or tumor size were measured and the results are expressed as the measurement made in the treated group (T) divided by the measurement made in the vehicle treated control group (C). The tumor model used in this assay is Lymphoma AKR (Transplanted) (intraperitoneal) in AKR/Lw mice

[1] = dose: 12.5 mg/kg/injection, schedule: Q01DX009 (ip), vehicle: Klucel (hydroxypropylcellulose) (HPC)
[2] = dose: 25.0 mg/kg/injection, schedule: Q01DX009 (ip), vehicle: Klucel (hydroxypropylcellulose) (HPC)
[3] = dose: 50.0 mg/kg/injection, schedule: Q01DX009 (ip), vehicle: Klucel (hydroxypropylcellulose) (HPC)
[4] = dose: 100.0 mg/kg/injection, schedule: Q04DX003 (ip), vehicle: Klucel (hydroxypropylcellulose) (HPC)
[5] = dose: 200.0 mg/kg/injection, schedule: Q04DX003 (ip), vehicle: Klucel (hydroxypropylcellulose) (HPC)
[6] = dose: 100.0 mg/kg/injection, schedule: Q01DX001 (ip), vehicle: Klucel (hydroxypropylcellulose) (HPC)
[7] = dose: 200.0 mg/kg/injection, schedule: Q01DX001 (ip), vehicle: Klucel (hydroxypropylcellulose) (HPC)
[8] = dose: 400.0 mg/kg/injection, schedule: Q01DX001 (ip), vehicle: Klucel (hydroxypropylcellulose) (HPC)

Measured: T/C

NC(=S)N/N=C/c1ccc(O)cn1
110 % of control and 214 % of control: [3]
inactive: dose: 3.12 mg/kg/injection, schedule: Q01DX009 (ip), vehicle: Klucel (hydroxypropylcellulose) (HPC) 116 % of control | dose: 20.0 mg/kg/injection, schedule: Q06HX008 (ip), vehicle: Klucel (hydroxypropylcellulose) (HPC) 115 % of control | dose: 20.0 mg/kg/injection, schedule: Q06HX012 (ip), vehicle: Klucel (hydroxypropylcellulose) (HPC) 115 % of control | [2] 119 % of control | dose: 25.0 mg/kg/injection, schedule: Q04DX003 (ip), vehicle: Klucel (hydroxypropylcellulose) (HPC) 116 % of control | dose: 30.0 mg/kg/injection, schedule: Q06HX008 (ip), vehicle: Klucel (hydroxypropylcellulose) (HPC) 107 % of control | dose: 31.25 mg/kg/injection, schedule: Q06HX004 (ip), vehicle: saline 116 % of control | dose: 31.25 mg/kg/injection, schedule: Q06HX012 (ip), vehicle: saline 96 % of control | dose: 31.25 mg/kg/injection, schedule: Q06HX016 (ip), vehicle: saline 113 % of control | dose: 40.0 mg/kg/injection, schedule: Q06HX008 (ip), vehicle: Klucel (hydroxypropylcellulose) (HPC) 103 % of control | dose: 40.0 mg/kg/injection, schedule: Q06HX012 (ip), vehicle: Klucel (hydroxypropylcellulose) (HPC) 123 % of control | dose: 50.0 mg/kg/injection, schedule: Q04DX003 (ip), vehicle: Klucel (hydroxypropylcellulose) (HPC) 123 % of control | dose: 50.0 mg/kg/injection, schedule: Q06HX008 (ip), vehicle: Klucel (hydroxypropylcellulose) (HPC) 88 % of control | dose: 50.0 mg/kg/injection, schedule: Q06HX012 (ip), vehicle: Klucel (hydroxypropylcellulose) (HPC) 111 % of control | dose: 60.0 mg/kg/injection, schedule: Q06HX008 (ip), vehicle: Klucel (hydroxypropylcellulose) (HPC) 119 % of control | dose: 60.0 mg/kg/injection, schedule: Q06HX012 (ip), vehicle: Klucel (hydroxypropylcellulose) (HPC) 103 % of control | dose: 62.5 mg/kg/injection, schedule: Q06HX004 (ip), vehicle: saline 90 % of control | dose: 62.5 mg/kg/injection, schedule: Q06HX008 (ip), vehicle: saline 110 % of control | dose: 62.5 mg/kg/injection, schedule: Q06HX012 (ip), vehicle: saline 113 % of control | dose: 62.5 mg/kg/injection, schedule: Q06HX016 (ip), vehicle: saline 120 % of control | [4] 120 % of control | dose: 125.0 mg/kg/injection, schedule: Q06HX008 (ip), vehicle: saline 96 % of control | dose: 125.0 mg/kg/injection, schedule: Q06HX012 (ip), vehicle: saline 86 % of control | [5] 123 % of control
active: [1] 214 % of control | dose: 75.0 mg/kg/injection, schedule: Q01DX009 (ip), vehicle: Klucel (hydroxypropylcellulose) (HPC) 173 % of control

Cc1ccc(S(=O)(=O)Nc2ccccc2-c2nc3c(Cl)ccc(Cl)c3c(=O)o2)cc1
inactive: [6] 96 % of control | [4] 90 % of control | [7] 103 % of control | [5] 90 % of control | [8] 93 % of control

CC(=O)CC(=O)c1ccccc1
inactive: [6] 106 % of control | [7] 106 % of control | [8] 103 % of control

Nc1nc(N)nc(N)n1
inactive: [4] 97 % of control | [5] 108 % of control | dose: 400.0 mg/kg/injection, schedule: Q04DX003 (ip), vehicle: Klucel (hydroxypropylcellulose) (HPC) 86 % of control | dose: 800.0 mg/kg/injection, schedule: Q04DX003 (ip), vehicle: Klucel (hydroxypropylcellulose) (HPC) 105 % of control

Cc1ccc(N=C(c2ccc([N+](=O)[O-])cc2)c2ccc([N+](=O)[O-])cc2)cc1
inactive: dose: 50.0 mg/kg/injection, schedule: Q01DX001 (ip), vehicle: Klucel (hydroxypropylcellulose) (HPC) 105 % of control | [6] 96 % of control | [7] 93 % of control and 100 % of control | [8] 100 % of control

O=C(O)c1ccc(SSc2ccc(C(=O)O)cn2)nc1
inactive: [1] 100 % of control | [2] 92 % of control | [3] 102 % of control | [6] 95 % of control and 102 % of control | [7] 90 % of control and 92 % of control | [8] 95 % of control and 97 % of control

COc1cccc2c1C(=O)c1c(O)c3c(c(O)c1C2=O)C[C@@](O)(C(=O)CO)C[C@@H]3OC1CC(N)C(O)C(C)O1 (stereo not given in full)
inactive: dose: 0.12 mg/kg/injection, schedule: Q01DX006 (sc), vehicle: saline 110 % of control | dose: 0.25 mg/kg/injection, schedule: Q01DX006 (ip), vehicle: saline 107 % of control | dose: 0.25 mg/kg/injection, schedule: Q01DX006 (sc), vehicle: saline 97 % of control | dose: 0.5 mg/kg/injection, schedule: Q01DX006 (ip), vehicle: saline 115 % of control | dose: 0.5 mg/kg/injection, schedule: Q01DX006 (sc), vehicle: saline 109 % of control (2×) and 110 % of control | dose: 0.5 mg/kg/injection, schedule: Q04DX003 (sc), vehicle: saline 105 % of control | dose: 0.9 mg/kg/injection, schedule: Q04DX003 (sc), vehicle: saline 105 % of control | dose: 1.0 mg/kg/injection, schedule: Q01DX006 (ip), vehicle: saline 115 % of control | dose: 1.0 mg/kg/injection, schedule: Q01DX006 (sc), vehicle: saline 117 % of control | dose: 1.5 mg/kg/injection, schedule: Q01DX006 (sc), vehicle: saline 110 % of control and 114 % of control (2×) | dose: 2.6 mg/kg/injection, schedule: Q04DX003 (sc), vehicle: saline 97 % of control
